Results reported in patent publication US20040200144A1, “Plant growth regulator and a method of producing the regulator” (Dainichiseika Color & Chemicals Mfg. Co., Ltd., priority 2003, published 2004).

Assays:
Type in all cases: in vivo
[1] = system: Japanese radish young plants; test: Dwarfing test of Japanese radish young plant; settings: for Plant Height / Dwarfing Rate: 5 ml per cell on 5th day, measured 27th day; for Dwarfing Rate: vs comparative group
Method: (§1) 50 g of sodium tripolyphosphate was dissolved in 400 ml of distilled water at 80° C., 17.5 g of cinnamic acid was added to the sodium tripolyphosphate solution and dissolved by stirring, the resultant solution was diluted with distilled water until the total volume of solution was 500 ml, and thus 3.5% cinnamic acid aqueous solution (pH 6.5) was prepared. The aqueous solution was further diluted with distilled water 70 times or 17.5 times, and 0.05% cinnamic acid aqueous solution and 0.2% cinnamic acid aqueous solution were prepared, respectively.
Nursery soil for house use was filled into paper joint pots (each with 24 cells: 34×43×50 mm/cell), water was sufficiently given to the soil, and seeds of carrots were sowed. After seeding, the pot was placed in the same greenhouse as described above to sprout. Subsequently, on the 5th day, the cinnamic aqueous acid solutions were added to the nursery soil in the joint pots. One of the joint pots (24 cells) was prepared as a 0.05% cinnamic acid aqueous solution addition group, and 5 ml of the 0.05% cinnamic acid aqueous solution was added to the nursery soil of each cell. Another one of the join pots was prepared as a 0.2% cinnamic acid aqueous solution addition group, and 5 ml of the 0.2% cinnamic acid aqueous solution was added to the nursery soil of each cell. The other one of the joint pots was prepared as a comparative group in which 5 ml of water is added to each cell, instead of the cinnamic acid aqueous solution. Subsequently, the cultivation of carrot young plants in each group was continued under general conditions. On the 27th day, the heights of young plants in each group were measured, the dwarfing rate (%) was calculated, and the dwarfing effect of cinnamic acid aqueous solution on carrot young plants was examined. […].
In the same way as in Example 5 except that seeds of Japanese radish were sowed, the dwarfing effect of cinnamic acid aqueous solution on Japanese radish young plants was examined. […]

carrot young plants = test: Dwarfing test of carrot young plant; settings: for Plant Height / Dwarfing Rate: 5 ml per cell on 5th day, measured 27th day; for Dwarfing Rate: vs comparative group
Method: (§2) Dwarfing rate (%)=[(the plant height of the comparative group)−(the plant height of an addition group)/the plant height of the comparative group]×100
as §1
Nursery soil for house use was filled into paper joint pots (each with 24 cells: 34×43×50 mm/cell), water was sufficiently given to the soil, and seeds of carrots were sowed. After seeding, the pot was placed in the same greenhouse as described above to sprout. Subsequently, on the 5th day, the cinnamic aqueous acid solutions were added to the nursery soil in the joint pots. One of the joint pots (24 cells) was prepared as a 0.05% cinnamic acid aqueous solution addition group, and 5 ml of the 0.05% cinnamic acid aqueous solution was added to the nursery soil of each cell. Another one of the join pots was prepared as a 0.2% cinnamic acid aqueous solution addition group, and 5 ml of the 0.2% cinnamic acid aqueous solution was added to the nursery soil of each cell. The other one of the joint pots was prepared as a comparative group in which 5 ml of water is added to each cell, instead of the cinnamic acid aqueous solution. Subsequently, the cultivation of carrot young plants in each group was continued under general conditions. On the 27th day, the heights of young plants in each group were measured, the dwarfing rate (%) was calculated, and the dwarfing effect of cinnamic acid aqueous solution on carrot young plants was examined. […]

[2] = system: Chinese cabbage young plants; test: Dwarfing test of Chinese cabbage young plant; settings: for Plant Height / Dwarfing Rate: 5 ml per cell on 4th day, measured 22nd day; for Dwarfing Rate: vs comparative group
Method: as §2
18.4 g of potassium hydroxide was dissolved in 400 ml of distilled water at 20° C., 50 g of cinnamic acid was added to the potassium hydroxide solution and dissolved by stirring, the resultant solution was diluted with distilled water until the total volume of solution was 500 ml, and thus 10% cinnamic acid aqueous solution (pH 8.8) was prepared. The aqueous solution was further diluted with distilled water 100 times or 33.3 times, and 0.1% cinnamic acid aqueous solution and 0.3% cinnamic acid aqueous solution were prepared, respectively.
Nursery soil for house use was filled into a polyethylene joint pot (36 cells: 45×45×30 mm/cell), water was sufficiently given to the soil, and seeds of Chinese cabbage were sowed. After seeding, the pot was placed in the same greenhouse as described above to sprout. Subsequently, on the 4th day, the cinnamic aqueous acid solutions were added to the nursery soil in the joint pot.
Among 36 cells, 12 cells were prepared as a 0.1% cinnamic acid aqueous solution addition group, and 5 ml of the 0.1% cinnamic acid aqueous solution was added to the nursery soil of each cell. Another 12 cells were prepared as a 0.3% cinnamic acid aqueous solution addition group, and 5 ml of the 0.3% cinnamic acid aqueous solution was added to the nursery soil of each cell. Remaining 12 cells were prepared as a comparative group in which 5 ml of water is added to each cell, instead of the cinnamic acid aqueous solution. Subsequently, the cultivation of Chinese cabbage young plants in each group was continued under general conditions. On the 22nd day, the heights of young plants in each group were measured, the dwarfing rate (%) was calculated, and the dwarfing effect of cinnamic acid aqueous solution on Chinese cabbage young plants was examined. […]

Question: Which results are given for `O=C(O)C=Cc1ccccc1` [cinnamic acid]?
Answer: Plant Height ([1]; 0.05% aqueous solution): 15.3 cm; Dwarfing Rate ([1]; 0.05% aqueous solution): 1.9%; Plant Height ([1]; 0.2% aqueous solution): 10.9 cm; Dwarfing Rate ([1]; 0.2% aqueous solution): 30.1%; dwarfing effect ([1]; Japanese radish young plants, 0.05% and 0.2% aqueous solutions): effective; Plant Height (carrot young plants; 0.05% aqueous solution): 7.9 cm; Dwarfing Rate (carrot young plants; 0.05% aqueous solution): 7.1%; Plant Height (carrot young plants; 0.2% aqueous solution): 6.9 cm; Dwarfing Rate (carrot young plants; 0.2% aqueous solution): 18.8%; dwarfing effect (carrot young plants; carrot young plants, 0.05% and 0.2% aqueous solutions): effective; Plant Height ([2]; 0.1% aqueous solution): 7.0 cm; Dwarfing Rate ([2]; 0.1% aqueous solution): 23.9%; Plant Height ([2]; 0.3% aqueous solution): 6.9 cm; Dwarfing Rate ([2]; 0.3% aqueous solution): 25.0%; dwarfing effect ([2]; Chinese cabbage young plants, 0.1% and 0.3% aqueous solutions): effective
